Laboratory results reported in the NIST ThermoML archive (doi:10.1021/je049546h).

Columns and labels:
[1] = xn = mol fraction of the nth substance listed; conditions: for mass density: Other PVT measurement; for Critical density: closed cell phase equilibration
[2] = Liquid

CCc1ccccc1 [ethylbenzene] + O=C=O
mass density [kg/m3], [1], Liquid
Conditions	303.2 K	308.2 K	313.2 K	318.2 K	323.2 K	328.2 K	333.2 K
x1 = 0.0211	709	665	590	–	–	–	–
x1 = 0.0384	741	715	673	633	583	–	–
x1 = 0.0512	762	735	702	671	630	603	–
x1 = 0.0637	782	761	731	703	675	642	607
x1 = 0.0751	790	769	748	722	697	672	646
x1 = 0.0998	818	799	779	760	742	723	706

[1], Liquid
Conditions	Critical density [kg/m3]
x1 = 0.0225	520
x1 = 0.0363	545
x1 = 0.0488	580

O=C=O [carbon dioxide]
[2]
Conditions	Critical pressure [kPa]	Critical temperature [K]
Direct measurement	7360	–
Visual observation in a stirred cell	–	304.2

C=Cc1ccccc1 [styrene] + O=C=O
mass density [kg/m3], [1]
Conditions	x1 = 0.0225	x1 = 0.0363	x1 = 0.0488	x1 = 0.0742	x1 = 0.101
303.2 K, Liquid	721	755	774	805	831
308.2 K, Liquid	675	721	747	781	813
313.2 K, Liquid	615	683	711	758	794
318.2 K, Liquid	529	635	682	734	774
321.2 K, Gas	500	–	–	–	–
323.2 K, Liquid	–	582	645	711	755
328.2 K, Liquid	–	–	608	685	733
330.2 K, Gas	–	527	–	–	–
333.2 K, Gas	–	–	570	–	–
333.2 K, Liquid	–	–	–	663	713

[1], Liquid
Conditions	Critical density [kg/m3]
x1 = 0.0211	504
x1 = 0.0384	546
x1 = 0.0512	560
x1 = 0.0637	590
